Data as given in PMC9760430, “A stapled chromogranin A-derived peptide homes in on tumors that express αvβ6 or αvβ8 integrins” (International Journal of Biological Sciences, 2023).
Peptide text beside a SMILES is read from it. * marks the point of attachment. X1 = CC1(C)C(/C=C/C2=C(Oc3ccc(S(=O)(=O)O)cc3)C(=C\C=C3/N(CCCCCC(=O)NCCN4C(=O)CC(*)C4=O)c4ccc(S(=O)(=O)O)cc4C3(C)C)/CCC2)=[N+](CCCCS(=O)(=O)O)c2ccc(S(=O)(=O)[O-])cc21

Target: T1, murine αvβ6 (Mus musculus, UniProt P43406+Q9Z0T9)
T1 construct: purchased Bio-Techne
T1 sequence (P43406 31-988 limits assumed): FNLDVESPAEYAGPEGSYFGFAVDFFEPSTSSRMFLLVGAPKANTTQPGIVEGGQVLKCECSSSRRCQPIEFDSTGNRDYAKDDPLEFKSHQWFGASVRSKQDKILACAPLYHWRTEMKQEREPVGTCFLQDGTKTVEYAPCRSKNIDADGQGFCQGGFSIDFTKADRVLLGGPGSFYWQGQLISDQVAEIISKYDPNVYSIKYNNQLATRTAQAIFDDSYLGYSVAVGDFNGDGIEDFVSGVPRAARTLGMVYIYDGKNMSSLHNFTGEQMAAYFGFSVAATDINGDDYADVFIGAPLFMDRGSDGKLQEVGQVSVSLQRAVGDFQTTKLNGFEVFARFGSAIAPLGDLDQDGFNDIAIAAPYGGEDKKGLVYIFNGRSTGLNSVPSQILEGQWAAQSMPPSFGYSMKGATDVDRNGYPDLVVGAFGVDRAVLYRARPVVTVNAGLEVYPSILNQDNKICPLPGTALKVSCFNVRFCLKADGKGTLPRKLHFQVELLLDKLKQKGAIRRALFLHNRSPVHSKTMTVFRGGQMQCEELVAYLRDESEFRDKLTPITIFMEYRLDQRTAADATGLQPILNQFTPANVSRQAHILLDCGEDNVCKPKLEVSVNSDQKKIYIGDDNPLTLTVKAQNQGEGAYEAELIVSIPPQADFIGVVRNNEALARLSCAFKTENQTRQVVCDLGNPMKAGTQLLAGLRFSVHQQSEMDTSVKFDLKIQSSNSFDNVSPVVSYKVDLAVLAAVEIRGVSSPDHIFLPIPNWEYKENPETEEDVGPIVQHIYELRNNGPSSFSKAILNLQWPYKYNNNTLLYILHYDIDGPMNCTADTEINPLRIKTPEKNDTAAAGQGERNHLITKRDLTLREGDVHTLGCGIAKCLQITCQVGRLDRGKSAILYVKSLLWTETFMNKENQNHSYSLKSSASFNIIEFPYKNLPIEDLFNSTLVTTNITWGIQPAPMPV
T1 sequence (Q9Z0T9 22-707 limits assumed): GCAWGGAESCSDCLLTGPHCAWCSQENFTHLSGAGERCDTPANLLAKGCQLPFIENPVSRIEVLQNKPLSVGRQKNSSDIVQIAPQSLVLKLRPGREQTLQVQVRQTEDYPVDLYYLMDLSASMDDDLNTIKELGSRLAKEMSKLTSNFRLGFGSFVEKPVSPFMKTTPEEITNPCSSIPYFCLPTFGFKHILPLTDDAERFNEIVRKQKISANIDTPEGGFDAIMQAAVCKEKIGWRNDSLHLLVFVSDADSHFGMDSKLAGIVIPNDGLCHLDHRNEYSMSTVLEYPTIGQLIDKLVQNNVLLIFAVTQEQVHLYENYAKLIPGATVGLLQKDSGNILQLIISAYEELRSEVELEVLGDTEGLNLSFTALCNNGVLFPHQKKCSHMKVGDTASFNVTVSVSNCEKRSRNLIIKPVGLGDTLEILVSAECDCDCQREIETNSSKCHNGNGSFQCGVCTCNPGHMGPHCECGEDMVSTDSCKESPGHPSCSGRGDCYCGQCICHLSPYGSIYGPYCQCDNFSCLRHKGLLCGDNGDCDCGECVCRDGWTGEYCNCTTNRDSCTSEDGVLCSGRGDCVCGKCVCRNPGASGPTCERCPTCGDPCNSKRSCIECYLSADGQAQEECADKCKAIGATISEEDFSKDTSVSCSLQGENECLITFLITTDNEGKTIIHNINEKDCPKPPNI
Assay: direct integrin binding assay of peptide-IRDye conjugates, murine αvβ6-coated plates
Settings: plates coated with recombinant murine αvβ6; conjugate 0.01-100 nM, 1 h; bound NIR fluorescence; mean ± SE, n = 3 experiments
Experimental: The affinity of peptide-IRDye conjugates for αvβ6 and αvβ8 integrins was determined by a direct binding assay using microtiter plates coated with αvβ6 or αvβ8 (Bio-Techne). After 1 h of incubation, the plates were washed; bound fluorescence was quantified by scanning the plates with an Odyssey CLx near-infrared fluorescence imaging system (LI-COR).
A control conjugate with a cysteine in place of the peptide was also prepared in parallel. The identity of the purified products, called 5a-IRDye, 2a-IRDye, and Cys-IRDye, was confirmed by mass spectrometry analysis (Table S1). In addition, the purity and identity of 5a-IRDye was monitored by liquid chromatography–mass spectrometry (LC-MS). […]
that the product consist of a single peak at 230 and 735 nm with the expected molecular weight (purity >95%) (Figure S3A).
The simplified molecular-input line-entry system (SMILES) of 5a-, 2a-, Cys- and 5a-Scr- […]
The concentration of each conjugate was quantified by spectrophotometric analysis at 774 nm (molar absorption coefficient, 240,000 M-1, cm-1) (Figure S3B). The final yield of 5a-IRDye […]
Binding of peptide-IRDye conjugates to avb6 and avb8 integrin
The binding affinity of peptide-IRDye conjugates for human and murine avb6 and avb8 integrins was determined as follows: 96-well clear-bottom black microtiter plates (Corning® cat. 3601) were coated with 2 μg/ml avb6 or avb8 (50 µl/well), in Dulbecco’s phosphate-buffered saline containing Ca2+ and Mg2+ (DPBS) and left to incubate overnight at 4°C. […]
The binding of peptide-IRDye conjugates to BxPC-3, 5M7101, and HUVECs cells was analyzed as follows. […]
conjugates were added to the microtiterplates and incubated at room temperature for 1 h (see Experimental Section). After washing, bound fluorescence was measured using an Odyssey CLx (LI-COR) scanner. Representative images of the scanned plates and quantification of binding are shown. […]

Compound | EC50 [nM]
CC1(C)C(/C=C/C2=C(Oc3ccc(S(=O)(=O)O)cc3)C(=C\C=C3/N(CCCCCC(=O)NCCN4C(=O)CC(SC[C@H](N)C(=O)O)C4=O)c4ccc(S(=O)(=O)O)cc4C3(C)C)/CCC2)=[N+](CCCCS(=O)(=O)O)c2ccc(S(=O)(=O)[O-])cc21 (stereo partly drawn) [Cys-IRDye] | > 100
CC[C@H](C)[C@H](NC(=O)[C@H](CCCNC(=N)N)NC(=O)[C@H](CCC(=O)O)NC(=O)[C@H](CCC(=O)O)NC(=O)CNC(=O)[C@H](CCCNC(=N)N)NC(=O)[C@H](CC(C)C)NC(=O)[C@@H](NC(=O)[C@H](CCC(=O)O)NC(=O)[C@H](Cc1ccccc1)NC(=O)[C@@H](N)CSC1CC(=O)N(CCNC(=O)CCCCCN2/C(=C\C=C3\CCCC(/C=C/C4=[N+](CCCCS(=O)(=O)O)c5ccc(S(=O)(=O)[O-])cc5C4(C)C)=C3Oc3ccc(S(=O)(=O)O)cc3)C(C)(C)c3cc(S(=O)(=O)O)ccc32)C1=O)[C@@H](C)O)C(=O)N[C@@H](CC(C)C)C(=O)N[C@@H](CO)C(=O)N[C@H](C(=O)N[C@@H](CC(C)C)C(=O)N[C@@H](CCCNC(=N)N)C(=O)N[C@@H](Cc1c[nH]cn1)C(=O)N[C@@H](CCC(N)=O)C(=O)N[C@@H](CC(N)=O)C(=O)N[C@@H](CC(C)C)C(=O)N[C@@H](CC(C)C)C(=O)N[C@@H](CCCCN)C(=O)N[C@@H](CCC(=O)O)C(=O)N[C@@H](CC(C)C)C(=O)N[C@@H](CCC(N)=O)C(=O)N[C@@H](CC(=O)O)C(N)=O)[C@@H](C)CC (stereo partly drawn) [2a-IRDye] (H-C(X1)FETLRGEERILSILRHQNLLKELQD-NH2) | > 100
CC[C@H](C)[C@H](NC(=O)[C@H](CCCNC(=N)N)NC(=O)[C@H](CC(C)C)NC(=O)[C@H](CC(=O)O)NC(=O)CNC(=O)[C@H](CCCNC(=N)N)NC(=O)[C@H](CC(C)C)NC(=O)[C@@H](NC(=O)[C@H](CCC(=O)O)NC(=O)[C@H](Cc1ccccc1)NC(=O)[C@@H](N)CSC1CC(=O)N(CCNC(=O)CCCCCN2C(=CC=C3CCCC(C=CC4=[N+](CCCCS(=O)(=O)[O-])c5ccc(S(=O)(=O)O)cc5C4(C)C)=C3Oc3ccc(S(=O)(=O)O)cc3)C(C)(C)c3cc(S(=O)(=O)O)ccc32)C1=O)[C@@H](C)O)C(=O)N[C@@H](CC(C)C)C(=O)N[C@@H](CO)C(=O)N[C@H](C(=O)N[C@@H](CC(C)C)C(=O)N[C@@H](CCCNC(=N)N)C(=O)N[C@H]1Cc2cn(nn2)CCCC[C@@H](C(=O)N[C@@H](CCCCN)C(=O)N[C@@H](CCC(=O)O)C(=O)N[C@@H](CC(C)C)C(=O)N[C@@H](CCC(N)=O)C(=O)N[C@@H](CC(=O)O)C(N)=O)NC(=O)[C@H](CC(C)C)NC(=O)[C@H](CC(N)=O)NC(=O)[C@H](CCC(N)=O)NC1=O)[C@@H](C)CC (stereo partly drawn) [5a-IRDye] | 0.9 ± 0.35
